Earlier results on four compounds are cited in patent publication US5554621A, “Dihydropyridine NPY antagonists: nitrogen heterocyclic derivatives” (Bristol-Myers Squibb Company, priority 1995, dated 1996).

Broadly, the IC50 is the concentration that gives 50% inhibition.

The subject of data set [1] is NPY-induced increase in intracellular Ca++ in SK-N-Mc cells.
For data set [2], the system named is NPY-induced pressor response. The settings on record: pithed rat.
In a further data set the test system is 3H-NPY in rat brain. The settings on record: read-out: IC50 (displacement of 3H-NPY).
The next data set addresses T1, NPY1 (Rattus norvegicus, UniProt P21555).
T1 construct: vasoconstrictive activity of the NPY1 agonist
T1 sequence (P21555 1-382): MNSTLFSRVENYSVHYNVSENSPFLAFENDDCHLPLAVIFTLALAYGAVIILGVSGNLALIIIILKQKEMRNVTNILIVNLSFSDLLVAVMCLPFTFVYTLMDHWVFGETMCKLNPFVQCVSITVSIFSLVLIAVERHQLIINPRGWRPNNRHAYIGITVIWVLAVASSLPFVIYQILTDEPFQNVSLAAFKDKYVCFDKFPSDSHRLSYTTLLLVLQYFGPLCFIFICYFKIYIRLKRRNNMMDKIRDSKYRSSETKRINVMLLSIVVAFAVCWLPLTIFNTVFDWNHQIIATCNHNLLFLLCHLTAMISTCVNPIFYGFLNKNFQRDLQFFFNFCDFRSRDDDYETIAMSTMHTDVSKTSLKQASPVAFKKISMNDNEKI

The next data set deals with T2, Y2 receptor (Rattus norvegicus, UniProt Q9ERC0).
T2 sequence (Q9ERC0 1-381): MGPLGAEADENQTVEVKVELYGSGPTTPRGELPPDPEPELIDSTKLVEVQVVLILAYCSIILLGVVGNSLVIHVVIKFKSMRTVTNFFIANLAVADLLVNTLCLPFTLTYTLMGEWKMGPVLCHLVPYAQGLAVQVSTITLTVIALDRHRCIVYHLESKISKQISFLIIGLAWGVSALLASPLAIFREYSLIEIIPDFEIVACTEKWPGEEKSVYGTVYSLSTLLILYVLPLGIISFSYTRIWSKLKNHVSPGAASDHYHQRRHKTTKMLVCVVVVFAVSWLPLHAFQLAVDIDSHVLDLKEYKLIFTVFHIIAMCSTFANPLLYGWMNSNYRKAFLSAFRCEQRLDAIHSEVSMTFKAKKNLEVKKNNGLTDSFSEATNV
The settings on record: functional selectivity for Y2 receptor.

Data set [3] has as its system I-125 labeled NPY and PYY in human neuroblastoma cells.
Data set [4] has as its system NPY-related increases in diastolic blood pressure. As to conditions: anesthetized guinea pig.
Data set [5] deals with NPY-induced contractions in guinea pig basilar artery.

With `N=C(N)NCCC[C@@H](NC(=O)C(c1ccccc1)c1ccccc1)C(=O)NCc1ccc(O)cc1` [BIBP 3226], the “Antagonism of NPY-induced increase in intracellular Ca++” value in [1] is recorded as “antagonized”. For the same compound, the “Antagonism of NPY-induced pressor response” value in data set [2] is reported as “antagonizing”.
As for `N=C(N)N(CCCCCCNCc1ccc2ccccc2c1)CCCCCCN(CCCCCCNCc1ccc2ccccc2c1)C(=N)N` [Example 6b], in the data set with rat femoral artery, the Functional antagonism result is “functional antagonism”. In addition, in the data set with 3H-NPY in rat brain, the IC50 is 18.4 µM. Further, on NPY1, the “Effect on vasoconstrictive activity of NPY1 agonist [Leu31, Pro34]NPY” value is recorded as “no effect”. Also, the “Effect against NPY2 agonist NPY13-36” value on Y2 receptor is “antagonized the effect”.
Consider `CN(C)CC1CCC(CNC(=N)c2ccc(CC(NC(=O)C(Cc3ccccc3)NS(=O)(=O)c3ccc4ccccc4c3)C(=O)N3CCCC3)cc2)CC1` (stereo not drawn) [SR 120819A], for which the “Displacement of I-125 labeled NPY and PYY” value in data set [3] is “displacing”. For the same compound, the “Antagonism of NPY-related increases in diastolic blood pressure” value in data set [4] is “antagonized”.
In the case of `O=P(O)(O)O[C@@H]1[C@H](OP(=O)(O)O)[C@H](O)[C@@H](O)[C@H](O)[C@H]1OP(=O)(O)O` [D-Myo-inositol-1,2,6-triphosphate], the “Antagonism of NPY-induced contractions” value in data set [5] is recorded as “potent but non-competitive antagonist”.
